The values that follow come from US4657918A, “3-[6-[3-pyrrolidino-1-(4-tolyl)prop-1e-enyl]-2-pyridyl]propionic acid and derivatives having anti-histaminic activity” (priority 1982, dated 1987).

The target of data set [1] is T1, H1 histamine receptor (Cavia porcellus, UniProt P31389).
T1 construct: The longitudinal muscle was isolated from the intact ileum of guinea-pigs; from tissue; host or cells: guinea-pig ileum, longitudinal muscle (Hartly, male 250-400 g)
Nature of the data set: In vitro antihistaminic activity, isolated guinea-pig ileum longitudinal muscle, histamine concentration-response shift (Schild plot). The following applies: negative log of the molar concentration of antagonist which shifts the histamine concentration-response curve 2X to the right, 1 h incubation, read-out: pA2 (converted). Format: cell-based. The procedure: In vitro antihistiminic activity: The longitudinal muscle was isolated from the intact ileum of guinea-pigs (Hartly, male 250-400 g) and placed in an organ bath under 300 mg tension. After one hour of equilibration, cumulative concentration-response curves (Van Rossum, J. M., Arch. Int. Pharmacodyn. Ther. 143, 299-330, 1963) to histamine were obtained. Following washing, the tissues were incubated for one hour with the test compound and then a second histamine concentration-response curve was run. Shifts to the right of the agonist concentration-response curve produced by the antagonists were used to construct Schild plots (Arunlakshana, O. and Schild, H. O., Br. J. Pharmacol: 14, 48-58, 1959). Regression of Log (dr-1) on Log [B], where dr is an equiactive response in the presence and absence of antagonist and [B] is the molar concentration of antagonist, allowed an estimate of pA2, i.e. the negative log of the concentration of antagonist which shifts the control histamine concentration-response curve 2X to the right.

The conditions of data set [2]: background statement; cited from earlier work.
For data set [3] the following is noted: antihistamines now in use; some patients; cited from earlier work.

T1 sequence (P31389 whole entry): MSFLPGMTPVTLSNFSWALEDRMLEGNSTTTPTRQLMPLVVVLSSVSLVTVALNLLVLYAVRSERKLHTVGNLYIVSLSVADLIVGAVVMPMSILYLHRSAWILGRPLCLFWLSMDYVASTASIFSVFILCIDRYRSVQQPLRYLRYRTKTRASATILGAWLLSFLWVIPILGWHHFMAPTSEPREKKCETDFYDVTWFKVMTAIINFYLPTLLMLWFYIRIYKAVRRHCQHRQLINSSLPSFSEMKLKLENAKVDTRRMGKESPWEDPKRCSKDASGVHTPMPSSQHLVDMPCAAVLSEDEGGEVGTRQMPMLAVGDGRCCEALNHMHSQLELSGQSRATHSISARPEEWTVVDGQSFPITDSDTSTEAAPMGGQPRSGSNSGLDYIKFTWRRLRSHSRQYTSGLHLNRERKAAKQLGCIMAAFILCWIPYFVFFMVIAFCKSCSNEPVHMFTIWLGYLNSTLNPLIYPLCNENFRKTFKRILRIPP

As for `O=C(O)/C=C/c1cccc(/C(=C/CN2CCCC2)c2ccccc2)n1` [E, (E)-3-[6-(1-phenyl-3-pyrrolidinoprop-1E-enyl)-2-pyridyl]acrylic acid], the Kb in data set [1] is 39.8 nM.

For the compound `Cc1ccc(/C(=C\CN(C)C)c2cccc(/C=C/C(=O)O)n2)cc1` [Compound B, (E)-3-{6-[3-Dimethylamino-1-(4-tolyl)prop-1E-enyl]-2-pyridyl}acrylic acid], in data set [1], the Kb was 6.31 nM.

In the case of `Cc1ccc(/C(=C\CN2CCCC2)c2ccccn2)cc1` [Triprolidine, (E)-1-(4-methylphenyl)-1-(2-pyridyl)-3-pyrrolidinoprop-1-ene], the antihistamine potency result in data set [2] is listed as “one of the most potent antihistamines available”.

Turning to `Cc1ccc(/C(=C\CN2CCCC2)c2cccc(C(=O)O)n2)cc1` [F, 6-[3-pyrrolidino-1-(4-tolyl)prop-1E-enyl]pyridine-2-carboxylic acid], the Kb in data set [1] was 1.26 nM.

With `O=C(O)/C=C/c1cccc(/C(=C/CN2CCCC2)c2ccc(Cl)cc2)n1` [D, (E)-3-{6-[1-(4-chlorophenyl)-3-pyrrolidinoprop-1E-enyl]-2-pyridyl}acrylicacid], the Kb in data set [1] was 1 nM.

As for `COc1ccc(/C(=C\CN2CCCC2)c2cccc(/C=C/C(=O)O)n2)cc1` [C, (E)-3-{6-[3-pyrrolidino-1-(4-methoxyphenyl)prop-1E-enyl]-2-pyridyl}acrylicacid], the Kb in data set [1] is 1.26 nM.

Consider `Cc1ccc(/C(=C\CN2CCCC2)c2cccc(CCC(=O)O)n2)cc1` [Compound A, 3-{6-[3-Pyrrolidino-1-(4-tolyl)prop-1E-enyl]-2-pyridyl}propionic acid], for which the Kb in data set [1] was 0.631 nM.

`CC(CN1c2ccccc2Sc2ccccc21)N(C)C` (centres unmarked) [promethazine]: the sedation or drowsiness result in data set [3] is “may cause sedation or drowsiness in some patients”.
